# Results published in ChEMBL document CHEMBL5625200 (Eur J Med Chem, 2023).
# Activity calls are given as the source filed them. The rule behind the calls is not given here.
# Key:
# [1] = test system: Rattus norvegicus; assay: Antihypertensive activity against MCT-induced Wistar albino rat assessed as reduction in ANP level at 300 mg/kg, sc by ELISA analysis (reference value: 358.00 +/- 1.24 pg/ml); type: functional
# [2] = test system: Rattus norvegicus; assay: Antihypertensive activity against MCT-induced Wistar albino rat assessed as reduction in TNNI3 level at 300 mg/kg, sc by ELISA analysis (reference value: 3.42 +/- 0.12 pg/ml); type: functional
# [3] = test system: Rattus norvegicus; assay: Antihypertensive activity against MCT-induced Wistar albino rat PAH model assessed as decreased right ventricular hypertrophy at 150 mg/kg, sc administered for 21 days (reference value: 0.42 +/- 0.020 […]); type: functional; settings: time 21 day
# [4] = test system: Rattus norvegicus; assay: Antioxidant activity against MCT-induced Wistar albino rat assessed as reduction in TBARS level at 300 mg/kg, sc by biochemical analysis (reference value: 123.03 +/- 0.47 micromol); type: functional
# [5] = test system: Rattus norvegicus; assay: Antioxidant activity against MCT-induced Wistar albino rat assessed as increase in SOD level at 150 mg/kg, sc by biochemical analysis (reference value: 19.15 +/- 0.21 U/mg); type: functional
# [6] = test system: Rattus norvegicus; assay: Antioxidant activity against MCT-induced Wistar albino rat assessed as increase in SOD level at 300 mg/kg, sc by biochemical analysis (reference value: 19.15 +/- 0.21 U/mg); type: functional
# [7] = test system: Rattus norvegicus; assay: Antihypertensive activity against MCT-induced Wistar albino rat assessed as increase in SGC expression by measuring fold change at 300 mg/kg, sc by quantitative RT-PCR analysis (reference value: 0.01); type: functional
# [8] = test system: Rattus norvegicus; assay: Antihypertensive activity against MCT-induced Wistar albino rat assessed as reduction in TNNI3 level at 150 mg/kg, sc by ELISA analysis (reference value: 3.42 +/- 0.12 pg/ml); type: functional
# [9] = test system: Rattus norvegicus; assay: Antihypertensive activity against MCT-induced Wistar albino rat PAH model assessed as decreased right ventricular systolic pressure at 300 mg/kg, sc administered for 21 days (reference value: 55.19 +/- 0.026 mmHg); type: functional; settings: time 21 day
# [10] = test system: Rattus norvegicus; assay: Antihypertensive activity against MCT-induced Wistar albino rat assessed as decrease in mPGES-1 expression by measuring fold change at 300 mg/kg, sc by quantitative RT-PCR analysis (reference value: 10.99); type: functional
# [11] = test system: Rattus norvegicus; assay: Antihypertensive activity against MCT-induced Wistar albino rat assessed as reduction in HIF1alpha level at 150 mg/kg, sc by ELISA analysis (reference value: 312.00 +/- 1.36 ng/ml); type: functional
# [12] = test system: Rattus norvegicus; assay: Antioxidant activity against MCT-induced Wistar albino rat assessed as reduction in TBARS level at 150 mg/kg, sc by biochemical analysis (reference value: 123.03 +/- 0.47 micromol); type: functional
# [13] = test system: Rattus norvegicus; assay: Antihypertensive activity against MCT-induced Wistar albino rat assessed as decrease in lung COX-2 expression at 300 mg/kg, sc by Western blotting analysis; type: functional, organism-based
# [14] = test system: Rattus norvegicus; assay: Antihypertensive activity against MCT-induced Wistar albino rat assessed as reduction in ANP level at 150 mg/kg, sc by ELISA analysis (reference value: 358.00 +/- 1.24 pg/ml); type: functional
# [15] = test system: Rattus norvegicus; assay: Antihypertensive activity against MCT-induced Wistar albino rat assessed as decrease in lung mPGES-1 expression at 300 mg/kg, sc by Western blotting analysis; type: functional, organism-based
# [16] = test system: Rattus norvegicus; assay: Antioxidant activity against MCT-induced Wistar albino rat assessed as increase in GSH level at 150 mg/kg, sc by biochemical analysis (reference value: 12.21 +/- 0.34 U/mg); type: functional
# [17] = test system: Rattus norvegicus; assay: Antihypertensive activity against MCT-induced Wistar albino rat PAH model assessed as decreased mean pulmonary arterial pressure at 300 mg/kg, sc administered for 21 days (reference value: 19.18 +/- 0.360 mmHg); type: functional; settings: time 21 day
# [18] = molecular target: T1, Endothelin-1 receptor (Homo sapiens, UniProt P25101); assay: Antagonist activity against human ET-1 by ELISA analysis; type: functional
# T1 sequence (P25101 whole entry): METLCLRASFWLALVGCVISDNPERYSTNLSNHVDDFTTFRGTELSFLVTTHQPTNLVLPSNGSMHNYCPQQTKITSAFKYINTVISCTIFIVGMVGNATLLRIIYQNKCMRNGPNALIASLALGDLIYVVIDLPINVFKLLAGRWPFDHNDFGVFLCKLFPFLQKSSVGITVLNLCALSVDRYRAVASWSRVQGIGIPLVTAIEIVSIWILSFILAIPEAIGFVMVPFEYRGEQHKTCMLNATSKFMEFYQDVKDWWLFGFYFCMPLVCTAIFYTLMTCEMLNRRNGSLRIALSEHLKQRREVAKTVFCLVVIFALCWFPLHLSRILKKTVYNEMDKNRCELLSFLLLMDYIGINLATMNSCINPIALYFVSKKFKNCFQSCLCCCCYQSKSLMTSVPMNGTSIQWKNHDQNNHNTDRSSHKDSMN
# [19] = test system: Rattus norvegicus; assay: Antihypertensive activity against MCT-induced Wistar albino rat assessed as decrease in ET-alpha expression by measuring fold change at 300 mg/kg, sc by quantitative RT-PCR analysis (reference value: 32.14); type: functional
# [20] = test system: Rattus norvegicus; assay: Antihypertensive activity against MCT-induced Wistar albino rat assessed as increase in eNOS expression by measuring fold change at 300 mg/kg, sc by quantitative RT-PCR analysis (reference value: 0.002); type: functional
# [21] = test system: Rattus norvegicus; assay: Antihypertensive activity against MCT-induced Wistar albino rat assessed as decrease in ET-beta expression by measuring fold change at 300 mg/kg, sc by quantitative RT-PCR analysis (reference value: 15.17); type: functional
# [22] = test system: Rattus norvegicus; assay: Antihypertensive activity against MCT-induced Wistar albino rat PAH model assessed as decreased right ventricular hypertrophy at 300 mg/kg, sc administered for 21 days (reference value: 0.42 +/- 0.020 […]); type: functional; settings: time 21 day
# [23] = test system: Rattus norvegicus; assay: Antioxidant activity against MCT-induced Wistar albino rat assessed as increase in GSH level at 300 mg/kg, sc by biochemical analysis (reference value: 12.21 +/- 0.34 U/mg); type: functional
# [24] = test system: Rattus norvegicus; assay: Antihypertensive activity against MCT-induced Wistar albino rat PAH model assessed as decreased mean pulmonary arterial pressure at 150 mg/kg, sc administered for 21 days (reference value: 19.18 +/- 0.360 mmHg); type: functional; settings: time 21 day
# [25] = test system: Rattus norvegicus; assay: Antihypertensive activity against MCT-induced Wistar albino rat assessed as increase in lung SGC expression at 300 mg/kg, sc by Western blotting analysis; type: functional, organism-based
# [26] = test system: Rattus norvegicus; assay: Antihypertensive activity against MCT-induced Wistar albino rat assessed as increase in lung eNOS expression at 300 mg/kg, sc by Western blotting analysis; type: functional, organism-based
# [27] = test system: Rattus norvegicus; assay: Antihypertensive activity against MCT-induced Wistar albino rat PAH model assessed as decreased right ventricular systolic pressure at 150 mg/kg, sc administered for 21 days (reference value: 55.19 +/- 0.026 mmHg); type: functional; settings: time 21 day
# [28] = test system: Rattus norvegicus; assay: Antihypertensive activity against MCT-induced Wistar albino rat assessed as presence of lung vasculitis at 150 to 300 mg/kg, sc by hematoxylin and eosin staining based microscopic analysis; type: functional, organism-based; settings: dose 150-300 mg/kg
# [29] = test system: Rattus norvegicus; assay: Antioxidant activity against MCT-induced Wistar albino rat assessed as increase in catalase level at 150 mg/kg, sc by biochemical analysis (reference value: 0.26 +/- 0.05 U/mg); type: functional
# [30] = test system: Rattus norvegicus; assay: Antihypertensive activity against MCT-induced Wistar albino rat assessed as decrease in COX-2 expression by measuring fold change at 300 mg/kg, sc by quantitative RT-PCR analysis (reference value: 32.22); type: functional
# [31] = test system: Rattus norvegicus; assay: Antihypertensive activity against MCT-induced Wistar albino rat assessed as reduction in HIF1alpha level at 300 mg/kg, sc by ELISA analysis (reference value: 312.00 +/- 1.36 ng/ml); type: functional
# [32] = test system: Rattus norvegicus; assay: Antioxidant activity against MCT-induced Wistar albino rat assessed as increase in catalase level at 300 mg/kg, sc by biochemical analysis (reference value: 0.26 +/- 0.05 U/mg); type: functional
# [33] = test system: Rattus norvegicus; assay: Antihypertensive activity against MCT-induced Wistar albino rat PAH model assessed as reduction in peribronchial and interstitial inflammatory infiltrates and inter-alveolar vascular spaces at 150 to 300 mg/kg, sc by hematoxylin and eosin staining based microscopic analysis; type: functional, organism-based; settings: dose 150-300 mg/kg
smiles,measurement,setting,value
CC/C=C/CCOc1nc(-c2ncccn2)nc(NS(C)(=O)=O)c1Oc1ccccc1OC,Activity,[1],245 pg/mL
same,Activity,[2],2.36 pg/mL
same,Activity,[3],0.29
same,Activity,[4],89 µmol
same,Activity,[5],25.43 U/mg
same,Activity,[6],32.14 U/mg
same,fold change (FC),[7],0.38
same,Activity,[8],2.67 pg/mL
same,Activity,[9],27.12 mmHg
same,fold change (FC),[10],1.19
same,Activity,[11],163.12 ng/mL
same,Activity,[12],102.23 µmol
same,Activity,[13],Active
same,Activity,[14],261.12 pg/mL
same,Activity,[15],Active
same,Activity,[16],14.02 U/mg
same,Activity,[17],13.93 mmHg
same,IC50,[18],0.26 nM
same,fold change (FC),[19],0.62
same,fold change (FC),[20],0.15
same,fold change (FC),[21],3.24
same,Activity,[22],0.25
same,Activity,[23],19.81 U/mg
same,Activity,[24],17.16 mmHg
same,Activity,[25],Active
same,Activity,[26],Active
same,Activity,[27],33.18 mmHg
same,Activity,[28],Active
same,Activity,[29],0.68 U/mg
same,fold change (FC),[30],2.43
same,Activity,[31],146 ng/mL
same,Activity,[32],0.95 U/mg
COc1ccccc1Oc1c(NS(=O)(=O)c2ccccc2)nc(-c2ncccn2)nc1OCC1CCCN1C (stereo not drawn),Activity,[1],238.08 pg/mL
same,Activity,[2],2.1 pg/mL
same,Activity,[3],0.27
same,Activity,[4],73.12 µmol
same,Activity,[5],31.12 U/mg
same,Activity,[33],Active
same,Activity,[6],40.21 U/mg
same,fold change (FC),[7],0.18
same,Activity,[8],2.32 pg/mL
same,Activity,[9],23.16 mmHg
same,fold change (FC),[10],1.07
same,Activity,[11],158.12 ng/mL
same,Activity,[12],88.12 µmol
same,Activity,[13],Active
same,Activity,[14],252.13 pg/mL
same,Activity,[15],Active
same,Activity,[16],17.27 U/mg
same,Activity,[17],10.12 mmHg
same,IC50,[18],0.22 nM
same,fold change (FC),[19],1.38
same,fold change (FC),[20],0.37
same,fold change (FC),[21],1.04
same,Activity,[22],0.24
same,Activity,[23],22.72 U/mg
same,Activity,[24],13.11 mmHg
same,Activity,[25],Active
same,Activity,[26],Active
same,Activity,[27],29.08 mmHg
same,Activity,[29],0.81 U/mg
same,fold change (FC),[30],2.91
same,Activity,[31],132.21 ng/mL
same,Activity,[32],1.05 U/mg
COc1ccccc1Oc1c(NS(=O)(=O)c2ccc(C(C)(C)C)cc2)nc(-c2ncccn2)nc1OCC1CCC1,IC50,[18],1.05 nM
COc1ccccc1Oc1c(NS(=O)(=O)c2ccc(C)cc2)nc(-c2ncccn2)nc1OCC1CCCN1C (stereo not drawn),IC50,[18],3.53 nM
COc1ccccc1Oc1c(NS(=O)(=O)c2ccccc2)nc(-c2ncccn2)nc1OCC1CCCC1,IC50,[18],2.78 nM
COc1ccccc1Oc1c(NS(C)(=O)=O)nc(-c2ncccn2)nc1OCC1CC1,IC50,[18],2.38 nM
COc1ccccc1Oc1c(NS(=O)(=O)c2ccccc2)nc(-c2ncccn2)nc1OCCC(C)C,IC50,[18],1.73 nM
CC/C=C/CCOc1nc(-c2ncccn2)nc(NS(=O)(=O)c2ccc(C(C)(C)C)cc2)c1Oc1ccccc1OC,IC50,[18],3.99 nM
CC#CCOc1nc(-c2ncccn2)nc(NS(C)(=O)=O)c1Oc1ccccc1OC,IC50,[18],2.13 nM
COc1ccccc1Oc1c(NS(=O)(=O)c2ccccc2)nc(-c2ncccn2)nc1OCC1CC1,IC50,[18],2.44 nM
COc1ccccc1Oc1c(NS(=O)(=O)c2ccc(C)cc2)nc(-c2ncccn2)nc1OCC1CCC1,IC50,[18],3.22 nM
